The test system of test [1] is fibroblast growth factor-2. As to conditions: in vivo; cited from earlier work.
Test [2] concerns subventricular zone (SVZ). Nature of the test: BrdU uptake (newly divided cells) in the subventricular zone of rats after 21 days of drug in drinking water. It counts as in vivo, rat. The settings on record: for BrdU positive (BrdU+) cells / mean cell counts in the subventricular zone versus vehicle control: rats, 21 days in drinking water, single BrdU injection at day 20. The procedure:
Groups of age- and weight-matched (five rats per group) adult male Wistar rats were fed ad libitum for 21 day s with either Haloperidol, 0.4 mg/kg/day, Risperidone (Janssen Pharmaceutica Res Foundation, Piscataway, N.J.) 0.5 mg/kg/day, or Olanzapine (Ely Lilly and Co., Indianapolis, Ind.) 2 mg/kg/day. Control groups received vehicle only. All drugs were administered in drinking water. Water bottles were tightly sealed with leak-proof lids. Fluid intake was measured for each animal for every 3 days and fresh drug was replaced accordingly to maintain the daily dosage.
On the 20th day of treatment, bromodeoxyuridine (BrdU, Sigma Chemical, St. Louis, Mo.), dissolved in distilled water, was injected intraperitonally in a volume of 0.3 ml or less per rat to deliver a dosage of 50 mg/kg, for the labeling of newly divided cells. One day after the BrdU injection, rats were anesthetized under ketamine (100 mg/kg) and xylazine (0.6 mg/kg) anesthesia with saline cardiac perfusion. Brains were removed quickly, placed in a brain matrix, cut into 5-mm blocks, cryoprotected in O.C.T. (Tissue-Tek) compound and frozen in isopentane in liquid nitrogen. Samples were stored at −80° C. until immunostaining.
Coronal brain sections, 10 μm-thick, were cut in a cryotome. Every fifth section was processed for immunohistochemistry with anti-BrdU antibody (Sigma Chemical). Sections were fixed in 4% paraformaldehyde and denatured in 2 N HCl for 30 min. Following incubation with primary antibody, sections were developed with avidin-biotin reagents using a biotinylated donkey anti-mouse-IgG antibody (Vector Labs., Burlingame, Calif.) and diaminobenzidine (DAB). Separate investigators performed sectioning, immunostaining, and counting of BrdU-positive cells in a double-blinded manner. To ensure consistency, one investigator who was unaware of treatment and staining protocols was responsible for counting BrdU-positive cells for the entire study.
SVZ was identified as the cell layer ventral and lateral to the ependymal layer. […] Cells along the lateral aspect of the subependymal region including the dorsolateral angle of the ventricle on both left and right hemispheres, and ventral to the corpus callosum were counted. The few BrdU-positive cells present outside this area were not counted. Five sections from each animal were counted and the average total BrdU positive cells calculated. To validate the BrdU staining of newly divided cells, an antibody against proliferating cell nuclear antigen (PCNA), from Sigma Chemical, was also used.
In these experiments, the effects on neurogenesis of treatment of animals with the atypical neuroleptics, Risperidone and Olanzapine, was assessed. […] In the experiments shown in FIG. 1, rats were treated with a vehicle, a typical neuroleptic, or an atypical neuroleptic for 21 day s. A single injection of BrdU was given to each rat intraperitoneally at day 20. Sections from brains of each animal were prepared and frozen for subsequent analysis. For immunostaining, frozen sections from rat brain were incubated with a monoclonal mouse-anti BrdU antibody, and a biotinylated anti-mouse secondary antibody and developed with avidin-biotin reagent and DAB. Shown in FIG. 1 is the staining for: (A) a vehicle-treated control rat; (B) a Haloperidol-treated rat; (C) a Risperidone-treated rat; and (D) an Olanzapine-treated rat. The arrows show some of the BrdU+ cells. […]
For quantification, the number of BrdU positive cells was counted for each group. […]

In test [3] the test system is cognition. Nature of the test: Cognitive performance of rats under long-term treatment. Type of test: in vivo, rat. As to conditions: up to 90 days of treatment. The procedure:
Atypical Neuroleptics Improve Cognition In this experiment, the effects of atypical neuroleptics and typical neuroleptics on cognition was evaluated. Rats were treated with either vehicle (water), Haloperidol, or Risperidone.

For test [4], the system named is hippocampal dentate gyrus. Nature of the test: Double immunofluorescent staining BrdU/NeuN in the hippocampal dentate gyrus. It counts as in vivo, rat. The settings on record: 21 days, single BrdU injection at day 20. The method, then:
Tissue sections from intestinal mucosa, where many new cells are generated, were used as positive controls. […] Omission of the primary, anti-BrdU antibody provided additional negative controls.
(§1) In these experiments, the effect of the atypical neuroleptics in the hippocampus was evaluated. In the experiments shown in FIG. 5, rats were treated with vehicle, a typical neuroleptic (Haloperidol) (data not shown), or an atypical neuroleptic (Risperidone or Olanzapine) for 21 day s. A single injection of BrdU was given to each rat intraperitoneally at day 20. Frozen sections from rat brain were incubated with a monoclonal mouse-anti BrdU antibody and a biotinylated anti-mouse secondary antibody and developed with avidin-biotin reagent and DAB.
The animal was treated with Olanzapine for 21 day s and a single injection of BrdU given intraperitoneally at day 20. Frozen sections were incubated with sheep-anti BrdU and mouse-anti NeuN antibodies. Secondary antibodies were a combination of Cy-3-conjugated anti-sheep antibody and Cy-2-conjugated anti-mouse antibody.

For test [5], the system named is superoxide dismutase. The settings on record: in vitro; cited from earlier work.
The subject of test [6] is subventricular zone (SVZ). Nature of the test: Double immunofluorescent staining BrdU/NeuN and BrdU/GFAP in the subventricular zone, weekly BrdU injection. Type of test: in vivo, rat. The settings on record: 21 days, BrdU injected at day 7, 14 and 20. An excerpt:
A second study was undertaken in which 15 rats were divided in three treatment groups: Olanzapine-, haldol-, and vehicle-treated. In this study, BrdU injection was given once a week (starting on day 7) and one animal from each group was killed on days 14, 21, 28, 35, and 42. Tissue sections from this study were used in double immunofluorescent staining for either BrdU/NeuN or BrdU/glial fibrillary acidic protein (GFAP).
To evaluate whether the BrdU-positive cells expressed any neuronal or astrocytic markers, sections were subjected to double immunofluorescent staining, using sheep anti-BrdU serum (Biodesign) in combination with either a mouse anti-NeuN (as a neuronal marker, Chemicon, Tememcula, Calif.) or a rabbit anti-glial fibrillary acidic protein (an astrocytic marker, Dako, Carpinteria, Calif.), and the appropriate secondary antibodies that had been conjugated with cyanin dyes were used for visualization (Jackson Lab, Bar Harbor, Me.). […]
To evaluate whether the BrdU-positive cells express any cell type-specific marker, double immunofluoresence microscopy using either anti-NeuN or anti-GFAP antibody in combination with anti-BrdU antibody was performed. […] No BrdU+/GFAP+ cells were detected. Although the double-stained (BrdU+/NeuN+) cells were not quantified, there were clearly more BrdU+/NeuN+ in rats treated with the atypical neuroleptics than that in the untreated control rats.

In test [7] the test system is hippocampal dentate gyrus. Nature of the test: BrdU+ cell count in the hippocampal dentate gyrus. Type of test: in vivo, rat. As to conditions: 21 days, single BrdU injection at day 20. The procedure:
as §1

The subject of test [8] is nerve growth factor (NGF)-receptor. As to conditions: in vitro; cited from earlier work.
The subject of test [9] is nerve growth factor. As to conditions: in vitro; cited from earlier work.

Structures are written as SMILES. Entries after “also recorded” stand apart in the source; their conditions may differ.

Here are results for four compounds from patent publication US20030064082A1, “Antipsychotic agents stimulate neurogenesis in brain” (priority 2001, published 2003).

As to `CN1CCN(C2=Nc3cc(Cl)ccc3Nc3ccccc32)CC1` [Clozapine, 8-chloro-11-(4-methyl-1-piperazinyl)-5H-dibenzo [b,e] [1,4] diazepine], in test [1], the “fibroblast growth factor-2 (FGF-2) expression” value is on record as “increases; also recorded: modulate”.
Take `O=C(CCCN1CCC(O)(c2ccc(Cl)cc2)CC1)c1ccc(F)cc1` [Haloperidol]: the “mean cell counts in the subventricular zone versus Olanzapine and Risperidone (Tukey multiple comparison)” value in test [2] (21 days, n=5) was “significantly lower”. In addition, the entries for the “BrdU positive (BrdU+) cells / mean cell counts in the subventricular zone versus vehicle control” value in test [2] and in test [2] (listed as Haldolperidol) were “No differences” and “not significantly different”, respectively. Further, the “cognitive performance as compared to the vehicle” value in [3] is recorded as “significantly impaired”. Besides, the “NeuN (or GFAP) expression of BrdU+ cells in the hippocampus” value in test [4] is recorded as “did not express NeuN (or GFAP)”.
`Cc1cc2c(s1)Nc1ccccc1N=C2N1CCN(C)CC1` [Olanzapine, 2-methyl-4-(4-methyl-1-piperazinyl)-10H-thieno[2,3-b] [1,5]benzodiazepine]: in test [2], the “BrdU positive (BrdU+) cells / mean cell counts in the subventricular zone versus vehicle control” value is “significant increase; also recorded: significantly higher”. In test [5], the “expression of superoxide dismutase” value is on record as “induces the expression”. Further, in [6], the “BrdU+/GFAP+ cells in the SVZ” value was “No BrU+/GFAP+ cells were detected; also recorded: essentially none” and the “BrdU+/NeuN+ cells in the SVZ” value is “numerous; also recorded: increase”. Also, in test [7], the “average numbers of BrdU-positive cells in the hippocampal dentate gyrus versus control group” value is “higher than the control group” and the “statistical significance of the increase in neurogenesis in the hippocampus” value is reported as “not statistically significant”. Besides, in [8], the “expression of nerve growth factor (NGF)-receptor” value is “induces the expression”. Also, the “NeuN (or GFAP) expression of BrdU+ cells in the hippocampus” value in test [4] is 3 BrdU+/NeuN− cells in the subgranular layer and a BrdU+/NeuN+ cell in the apical region of the granular cell layer. Besides, in [9], the “expression of nerve growth factor” value is “stimulate expression”.
With `Cc1nc2n(c(=O)c1CCN1CCC(c3noc4cc(F)ccc34)CC1)CCCC2` [Risperidone, 3-[2-[4-(6-fluoro-1,2-benzisoxazol-3-yl)-1-piperidinyl]ethyl]-6,7,8,9-tetrahydro-2-methyl-4H-pyrido[1,2-a]pyrimidin-4-one], the “BrdU positive (BrdU+) cells / mean cell counts in the subventricular zone versus vehicle control” value in test [2] was “significant increase; also recorded: significantly higher”. Further, in test [7], the “average numbers of BrdU-positive cells in the hippocampal dentate gyrus versus control group” value is “higher than the control group” and the “statistical significance of the increase in neurogenesis in the hippocampus” value was “not statistically significant”. For the same compound, in [3], the “cognitive performance as compared to the vehicle” value was “improved performance”.
